# Assay results from patent US10280164B2, “Pyrazolopyridone compounds and uses thereof” (Incyte Corporation, priority 2016, dated 2019).
# Molecular target: HPK1 (Homo sapiens (Human), UniProt Q92918)
# Assay: HPK1 Kinase Binding Assay (LanthaScreen Eu-Anti GST antibody / tracer 222)
# Details: active HPK1 (SignalChem M23-11G), tracer 222, one hour incubation at 25° C.
# Experimental: A stock solution of 1 mM test compound was prepared in DMSO. The compound plate was prepared by 3-fold and 11-point serial dilutions. 0.1 μL of the compound in DMSO was transferred from the compound plate to the white 384 well polystyrene plates. The assay buffer contained 50 mM HEPES, pH 7.5, 0.01% Tween-20, 5 mM MgCl2, 0.01% BSA, and 5 mM DTT. 5 μl of 4 nM active HPK1 (SignalChem M23-11G) prepared in the buffer was added to the plate. The enzyme concentration given was based on the given stock concentration reported by the vender. 5 μl of 18 nM tracer 222 (ThermoFisher PV6121) and 4 nM LanthaScreen Eu-Anti GST antibody (ThermoFisher PV5595) were added. After one hour incubation at 25° C., the plates were read on a PHERAstar FS plate reader (BMG Labtech). Ki values were determined.
# Sequence of HPK1 (Q92918 1-346): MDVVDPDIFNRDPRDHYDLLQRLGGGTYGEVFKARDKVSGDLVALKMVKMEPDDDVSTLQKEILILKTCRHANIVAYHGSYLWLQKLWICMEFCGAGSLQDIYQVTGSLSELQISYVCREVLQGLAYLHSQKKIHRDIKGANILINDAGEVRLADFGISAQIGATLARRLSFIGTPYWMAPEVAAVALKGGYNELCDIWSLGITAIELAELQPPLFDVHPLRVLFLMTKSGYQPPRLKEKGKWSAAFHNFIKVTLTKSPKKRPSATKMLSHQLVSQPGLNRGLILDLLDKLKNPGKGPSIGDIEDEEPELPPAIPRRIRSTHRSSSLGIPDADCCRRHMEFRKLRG
row,Ki [µM],SMILES
1,≤ 0.1,"CN1CCN(c2ccc(-c3n[nH]c4cc(=O)n(-c5ccccc5F)cc34)cc2)CC1 [Example 2, 5-(2-Fluorophenyl)-3-[4-(4-methylpiperazin-1-yl)phenyl]-1,5-dihydro-6H-pyrazolo[4,3-c]pyridin-6-one]"
2,0.5 to 3,"CN1CCN(c2ccc(-c3n[nH]c4cc(=O)n(C5CCN(C)C5=O)cc34)cc2)CC1 (stereo not shown) [Example 15, 5-(1-Methyl-2-oxopyrrolidin-3-yl)-3-[4-(4-methylpiperazin-1-yl)phenyl]-1,5-dihydro-6H-pyrazolo[4,3-c]pyridin-6-one]"
3,0.1 to 0.5,"CC1OCCCC1n1cc2c(-c3ccc(N4CCN(C)CC4)cc3)n[nH]c2cc1=O (stereo not shown) [Example 16, 3-[4-(4-Methylpiperazin-1-yl)phenyl]-5-(2-methyltetrahydro-2H-pyran-3-yl)-1,5-dihydro-6H-pyrazolo[4,3-c]pyridin-6-one]"
4,≤ 0.1,"COc1ccccc1-n1cc2c(-c3ccc(N4CCN(C)CC4)cc3)n[nH]c2cc1=O [Example 4, 5-(2-Methoxyphenyl)-3-[4-(4-methylpiperazin-1-yl)phenyl]-1,5-dihydro-6H-pyrazolo[4,3-c]pyridin-6-one]"
5,≤ 0.1,"CN1CCN(c2ccc(-c3n[nH]c4cc(=O)n(-c5ncccc5F)cc34)cc2)CC1 [Example 8, 5-(3-Fluoropyridin-2-yl)-3-[4-(4-methylpiperazin-1-yl)phenyl]-1,5-dihydro-6H-pyrazolo[4,3-c]pyridin-6-one]"

# Further lines, the molecule ahead of its results:
row,SMILES,Ki [µM]
1,"Cc1ccccc1-n1cc2c(-c3ccc(N4CCN(C)CC4)cc3)n[nH]c2cc1=O [Example 3, 3-[4-(4-Methylpiperazin-1-yl)phenyl]-5-(o-tolyl)-1,5-dihydro-6H-pyrazolo[4,3-c]pyridin-6-one]",≤ 0.1
2,"CN1CCN(c2ccc(-c3n[nH]c4cc(=O)n(C5CCOC5)cc34)cc2)CC1 (stereo not shown) [Example 10, 3-[4-(4-Methylpiperazin-1-yl)phenyl]-5-(tetrahydrofuran-3-yl)-1,5-dihydro-6H-pyrazolo[4,3-c]pyridin-6-one]",0.5 to 3
3,"CN1CCN(c2ccc(-c3n[nH]c4cc(=O)n(-c5ccccc5)cc34)cc2)CC1 [Example 1, 3-[4-(4-Methylpiperazin-1-yl)phenyl]-5-phenyl-1,5-dihydro-6H-pyrazolo[4,3-c]pyridin-6-one]",0.1 to 0.5
4,"CN1CCN(c2ccc(-c3n[nH]c4cc(=O)n(-c5cccc6c5CCNC6)cc34)cc2)CC1 [Example 6, 3-[4-(4-Methylpiperazin-1-yl)phenyl]-5-(1,2,3,4-tetrahydroisoquinolin-5-yl)-1,5-dihydro-6H-pyrazolo[4,3-c]pyridin-6-one]",≤ 0.1
5,"CN1CCN(c2ccc(-c3n[nH]c4cc(=O)n(C5CCCCC5)cc34)cc2)CC1 [Example 9, 5-Cyclohexyl-3-[4-(4-methylpiperazin-1-yl)phenyl]-1,5-dihydro-6H-pyrazolo[4,3-c]pyridin-6-one]",0.1 to 0.5
6,"CN1CCN(c2ccc(-c3n[nH]c4cc(=O)n(Cc5ccccc5)cc34)cc2)CC1 [Example 11, 5-Benzyl-3-[4-(4-methylpiperazin-1-yl)phenyl]-1,5-dihydro-6H-pyrazolo[4,3-c]pyridin-6-one]",0.1 to 0.5
7,"COc1cccc(F)c1-n1cc2c(-c3ccc(N4CCN(C)CC4)cc3)n[nH]c2cc1=O [Example 5, 5-(2-Fluoro-6-methoxyphenyl)-3-[4-(4-methylpiperazin-1-yl)phenyl]-1,5-dihydro-6H-pyrazolo[4,3-c]pyridin-6-one]",≤ 0.1
8,"CC(c1ccccc1C(F)(F)F)n1cc2c(-c3ccc(N4CCN(C)CC4)cc3)n[nH]c2cc1=O (stereo not shown) [Example 13, 3-[4-(4-Methylpiperazin-1-yl)phenyl]-5-{1-[2-(trifluoromethyl)phenyl]ethyl}-1,5-dihydro-6H-pyrazolo[4,3-c]pyridin-6-one]",≤ 0.1
9,"CC(c1ccccc1)n1cc2c(-c3ccc(N4CCN(C)CC4)cc3)n[nH]c2cc1=O (stereo not shown) [Example 14, 3-[4-(4-Methylpiperazin-1-yl)phenyl]-5-(1-phenylethyl)-1,5-dihydro-6H-pyrazolo[4,3-c]pyridin-6-one]",≤ 0.1
10,"CN1CCN(c2ccc(-c3n[nH]c4cc(=O)n(-c5cccc6c5OCCO6)cc34)cc2)CC1 [Example 7, 5-(2,3-Dihydrobenzo[b][1,4]dioxin-5-yl)-3-[4-(4-methylpiperazin-1-yl)phenyl]-1,5-dihydro-6H-pyrazolo[4,3-c]pyridin-6-one]",≤ 0.1
11,"CN1CCN(c2ccc(-c3n[nH]c4cc(=O)n(CC5CCCCC5)cc34)cc2)CC1 [Example 12, 5-(Cyclohexylmethyl)-3-[4-(4-methylpiperazin-1-yl)phenyl]-1,5-dihydro-6H-pyrazolo[4,3-c]pyridin-6-one]",0.1 to 0.5
